Usually melting point stands for the temperature of the solid-liquid transition. In turn, `CCCC[C@H](NC(=O)[C@H](CC(C)C)NC(=O)c1ccccc1OC)C(=O)CSCc1ccco1` gave a melting point of 77 to 78 °C.
`CCn1cc(C(=O)O)c(=O)c2cc(F)c(N3CCN(CCO)CC3)c(F)c21` gave a melting point of 225 to 228 °C.
Compound `CC(=O)N1CCc2cc(S(=O)(=O)n3c(CCCC(=O)O)cc4cc(Cl)ccc43)ccc21` showed a melting point of 115 to 117 °C.
`O=C1C(c2cc3c(cc2O)OCCO3)c2ccccc2N1C(c1ccccc1)c1ccccc1` (centres undefined) registered a melting point of 157 to 160 °C.
Compound `NC(=O)c1c(F)cccc1C(F)(F)F` returned a melting point of 143 to 144 °C.
`O=C(O)c1ccc(-c2cccc([N+](=O)[O-])c2)[nH]c1=O` gave a melting point of 303 to 304 °C.
On to `COC(=O)C1(CF)C=NN(C)N1` (centres undefined), for which the melting point was in the range of 64 to 66 °C.
`CCNC1CCc2[nH]c3ccc(OCc4ccccc4)cc3c2C1` (centres undefined) registered a melting point of 117 to 118 °C.
Compound `CCOC1=CC2=CCC3C4CCC(=O)C4(C)CCC3C2(C)CC1` (centres undefined) came in with a melting point of 146 to 149 °C.
For `CN1Cc2c(Cl)cc(F)c(-n3c(=O)cc(C(F)(F)F)n(C)c3=O)c2O1`, the melting point lay in the range of 218 to 219 °C.
For the compound `COc1cc(OC(=O)c2ccccc2)c2ccccc2c1OC(=O)c1ccccc1`, the melting point is 63 to 64 °C.
Consider `CN(c1cccc2cc(-c3nccs3)[nH]c12)S(=O)(=O)c1ccsc1CS(C)(=O)=O`, for which the melting point turned out to be 253 °C.
The compound `CC1CC(C)(C)NC(c2ccccc2)=N1` (centres undefined) displayed a melting point of 86 to 87 °C.
In the case of `CCONC(=O)Cc1ccc2cc(OC)ccc2c1`, the melting point lay within 196 to 197 °C.
Consider `O=[N+]([O-])c1ccc(-c2nnsc2-c2ccc([N+](=O)[O-])cc2)cc1`, for which the melting point lay within 185 to 186 °C.
`CC(C)CCOC1CCC(=O)N1` (centres undefined) showed a melting point of 73 to 75 °C.
Regarding `CC1(C)C(=O)Nc2cc([N+](=O)[O-])c(NC(=O)c3ccncc3)cc21`, the melting point lay within 310 to 318 °C.
In turn, `C=Cn1cc(C(=O)O)c(=O)c2cc(F)c(-c3ccncc3)nc21` had a melting point of 254 to 257 °C.
`Cc1ccc2c(c1)OC(CCO)C(=O)N2Cc1cccc(Cl)c1` (centres undefined) registered a melting point of 72 to 74 °C.
In turn, `O=P(Cc1ccc(O)cc1)(c1ccccc1)c1ccccc1` yielded a melting point of 125 °C.
With `CN(C)C(=O)c1nc(-c2ccccc2)nc2[nH]c3ccccc3c12`, the melting point lay within 218 to 219 °C.
The figure for `CCC(C)n1c2ccccc2c2ccccc21` (centres undefined) is 62 to 63 °C.
On to `O=Cc1ccc(C=Cc2ccc3ccccc3n2)cc1`, for which the melting point fell in the range of 112 to 113 °C.
For `Nc1sc2c(c1C(=O)c1ccc(Cl)c3ccccc13)CCCC2`, the melting point was in the range of 179 to 181 °C.
In turn, `COc1ccc(-c2ccc(-c3ccc(F)cc3)nc2-c2ccc(O)cc2)cc1` had a melting point of 143 to 145 °C.
The compound `Cc1nc(N2CCN(Cc3ccccc3)CC2)ncc1C(=O)O` registered a melting point of 192 °C.
In turn, `O=[N+]([O-])c1cnc2cc(Cl)ccc2c1Cl` showed a melting point of 165 to 167 °C.
Compound `Cc1ccccc1NC(=O)CN(C(=O)CN1C(=O)c2ccccc2C1=O)c1ccccc1` displayed a melting point of 160 °C.
As for `O=C(O)c1ccc2c(oc3ccccc32)c1C(=O)O`, the melting point lay in the range of 260 to 262 °C.
`CC(O)c1nsc2nc3ccccc3n12` (centres undefined): the melting point lay in the range of 174 to 175 °C.
Consider `COc1cc(OC)c2c(c1)S(=O)(=O)N(CCl)C2=O`, for which the melting point was 185 to 187 °C.
The same measure for `CC(C)(C)CCC(=O)c1ccc2cc(-c3ccc4c(Br)c(OCC(=O)O)ccc4c3)sc2c1`: 246 to 247 °C.
For `CCCOC1=NS(=O)(=O)N(C)C(Oc2ccc([N+](=O)[O-])cc2)=N1`, the melting point lay within 129 to 131 °C.
`Cc1ccc(-c2nc(C#N)cc3c4cccc5c4n(c23)CCC5)cc1` returned a melting point of 217 to 218 °C.
The same measure for `CCC(C(c1ccc(OC)cc1)c1ccc(C(C)(C)C)cc1)[N+](=O)[O-]` (centres undefined): 114 to 116 °C; for `COc1ccc(C=O)c(O)c1O`: 116 to 117 °C.
`Clc1ccc2[nH]c3c(c2c1)CCC1(C3)OCCO1` returned a melting point of 128 to 138 °C.
`Cc1ccc(CN(C)C(=O)c2cnn(C)c2C(=O)Nc2ccn3nc(-c4ccccc4)nc3c2)cn1`: the melting point lay in the range of 110 to 150 °C.
`O=C(O)c1c(-c2ccccc2)c2ccccc2n1Cc1ccc(OCc2ccccc2)cc1` displayed a melting point of 193 to 194 °C.
For the compound `CCCCCCOc1ccc(-c2cc(CO)ccc2CO)cc1`, the melting point lay in the range of 72.5 to 74 °C.
With `O=C(c1ccccc1)c1cc2ccnc(N(Cc3ccccc3)Cc3ccccc3)c2[nH]1`, the melting point was 122 to 124 °C.
In turn, `CCCCOc1cc(/C=C(\OCC)C(=O)O)ccc1OCCc1ccc(NS(=O)(=O)CCCC)cc1` returned a melting point of 164 °C.
The compound `CC(C)c1[nH][nH]c(=O)c1Cc1ccc2ccccc2c1` came in with a melting point of 143 to 145 °C.
In turn, `Cc1nnc2n1-c1ccc(Br)cc1C(c1ccccc1)=NC2` yielded a melting point of 268 to 270 °C.
In turn, `O=C1N(CC2CCCO2)c2ccccc2C12COc1cc3c(cc12)CCCC3` (centres undefined) showed a melting point of 139 to 141 °C.
`CN(C)N=Cc1cc(-n2c(=O)cc(C(F)(F)F)n(C)c2=O)ccc1Cl` returned a melting point of 170 to 171 °C.
The figure for `COc1ccccc1-c1cn([C@H]2CN3CCC2CC3)nn1` is 120 °C; for `COC(=O)C1=C(C)NC(C)=C(C(=O)OCCCCCCOc2cc(-c3ccccc3)[nH]n2)C1c1cccc([N+](=O)[O-])c1` (centres undefined) it is 151 to 153 °C.
For `CCCC(O)(C=Cc1ccccc1)CC(=O)OC` (centres undefined), the melting point is 43 °C.
Compound `Cc1ccc(I)c(CC(=O)OC(C)C)c1` showed a melting point of 48 to 50 °C.
The figure for `CC(=O)c1cc2c(s1)CCCc1cc(=O)n(-c3ccc(Cl)cc3)nc1-2` is 164 to 166 °C; for `COC(=O)c1sc2ccc([N+](=O)[O-])cc2c1N` it is 208 to 210 °C; for `Cc1ccc(C(=O)Cn2c(-n3ncnc3N)nc3ccccc32)cc1C` it is 190 to 193 °C.
The same measure for `CCC(=O)NCCc1c[nH]c2ccc(OCc3ccccc3)cc12`: 110 to 112 °C.
`CC(CCl)NC(=O)c1c(Cl)cccc1[Si](C)(C)C` (centres undefined): the melting point fell in the range of 150 to 151 °C.
On to `COc1cc2c(cc1OC)C(=O)C(N1CCC(n3c(=O)[nH]c4ccccc43)CC1)CC2` (centres undefined), for which the melting point is 238 to 239 °C.
As for `CC1(C)CCC(C)(C)c2cc(OCc3ccc(CO)cc3)ccc21`, the melting point was in the range of 108 to 109 °C.
Compound `COc1ccc2c(c1)C(c1ccccc1Cl)C(=O)N2` (centres undefined) displayed a melting point of 179 °C.
As for `N#Cc1cc(N2CCC(N3CCOCC3)CC2)ccc1N`, the melting point is 178 to 180 °C.
The figure for `CCCN(CCC)C(C)C(=O)Nc1cccc2c1C(=O)c1c(NC(=O)C(C)N(CCC)CCC)cccc1C2=O` (centres undefined) is 129 to 130 °C; for `CCOC(=O)C(C(=O)OCC)N1CC(N2C(=O)c3ccccc3C2=O)C1=O` (centres undefined) it is 149 to 150 °C.
With `N#Cc1ccc(N2C(=N)C3(CCCC3)NC2=O)cc1C(F)(F)F`, the melting point lay in the range of 212 to 213 °C.
`CNC(=O)c1[nH]c(C)c2c1CN=C(c1ccccc1F)c1cc(Cl)ccc1-2` came in with a melting point of 252 to 255 °C.
Take `O=C1c2cccc(-c3ccccc3)c2C(=O)C1c1ccccc1` (centres undefined): the melting point was in the range of 166 to 168 °C.

(Values after a melting point compilation (Tetko et al.; mined from patent text by program, amines drawn as free bases though some values may be those of a salt).)
